# Experiments:
# [1] = tested on: rabbit; conditions: Prenatal developmental toxicity study, new zealand white, Oral, Gavage/Intubation, dose end: 19 GD
# [2] = tested on: dog; conditions: Subchronic oral toxicity in nonrodent, beagle, Feed, dose end: 90 day, group: systemic, systemic / hematology / leukocyte (wbc) count differential / leukocyte (wbc) + systemic / hematology / mean corpuscular hemoglobin …
# [3] = tested on: dog; conditions: Chronic toxicity; beagle; Oral; Feed; dose end: 52 week; group: systemic; systemic / clinical chemistry / aspartate aminotransferase (ast/sgot) / aspartate aminotransferase (ast/sgot) + systemic / clinical …
# [4] = tested on: rat; conditions: Prenatal developmental toxicity study, sprague dawley, Oral, Gavage/Intubation, dose end: 15 GD
# [5] = tested on: rat; conditions: Combined chronic toxicity/carcinogenicity, sprague dawley, Oral, Feed, dose end: 24 month, group: systemic
# [6] = tested on: rat; conditions: Subchronic oral toxicity in rodents, sprague dawley, Feed, dose end: 90 day, group: systemic
# [7] = tested on: rat; conditions: Multigenerational reproductive toxicity study, sprague dawley, Oral, Feed, dose end: 2 generation
# [8] = tested on: rat; conditions: Multigenerational reproductive toxicity study, wistar, Oral, Feed, dose end: 2 generation
# [9] = tested on: rat; conditions: Combined chronic toxicity/carcinogenicity, sprague dawley, Oral, Feed, dose end: 24 month, group: systemic; remark: listed apart in the source
# [10] = tested on: rat; conditions: Prenatal developmental toxicity study, sprague dawley, Oral, Gavage/Intubation, dose end: 15 GD; remark: listed apart in the source
# [11] = tested on: dog; conditions: Chronic toxicity, beagle, Oral, Capsule, dose end: 107 week, group: systemic
# [12] = tested on: mouse; conditions: Carcinogenicity, cd1, Oral, Feed, dose end: 104 week, group: systemic
# [13] = tested on: rat; conditions: Subchronic oral toxicity in rodents, sprague dawley, Feed, dose end: 90 day
# [14] = tested on: rat; conditions: Subchronic oral toxicity in rodents, other, Feed, dose end: 10 week, group: systemic, systemic / in life observation / body weight / body weight gain
# [15] = tested on: rat; conditions: Subchronic oral toxicity in rodents, fischer, Gavage/Intubation, dose end: 13 week
# [16] = tested on: rat; conditions: Carcinogenicity, other, Oral, Feed, dose end: 102 week, group: systemic
# [17] = tested on: rat; conditions: Sub-acute repeat dose toxicity; fischer; Oral; Gavage/Intubation; dose end: 14 day; group: systemic; systemic / hematology / leukocyte (wbc) count differential / leukocyte (wbc) + systemic / hematology / nucleated red blood cell (nrbc) / …
# [18] = group: developmental, systemic / in life observation / body weight / fetal weight + developmental / developmental malformation / other / other
# [19] = group: maternal, reproductive / reproductive performance / aborted / aborted + systemic / in life observation / food consumption / food consumption + …
# [20] = group: developmental, systemic / in life observation / body weight / fetal weight + developmental / developmental malformation / bone / unossified + developmental…
# [21] = group: maternal, systemic / in life observation / body weight / body weight gain + systemic / in life observation / clinical signs / salivation + systemic / …
# [22] = systemic / in life observation / body weight / body weight
# [23] = systemic / clinical chemistry / globulins / globulins + systemic / clinical chemistry / glucose / glucose + systemic / in life observation…
# [24] = systemic / organ weight / spleen / absolute + systemic / organ weight / spleen / relative to body weight
# [25] = group: offspring, systemic / in life observation / body weight / offspring (pup) weight
# [26] = group: offspring, systemic / in life observation / body weight / offspring (pup) weight gain
# [27] = group: parental, systemic / in life observation / body weight / body weight gain
# [28] = systemic / pathology microscopic / thyroid gland / hyperplasia + systemic / pathology microscopic / thyroid gland / hypertrophy + systemic…
# [29] = group: developmental, developmental / developmental malformation / bone / incomplete ossification + systemic / in life observation / body weight / fetal weight + …
# [30] = group: maternal, reproductive / reproductive performance / fertility / fertility + reproductive / reproductive performance / resorptions / resorptions + …
# [31] = systemic / organ weight / liver / relative to body weight
# [32] = systemic / organ weight / liver / relative to body weight + systemic / clinical chemistry / alkaline phosphatase (alp/alk) / alkaline …
# [33] = systemic / organ weight / liver / absolute + systemic / organ weight / adrenal gland / absolute + systemic / organ weight / adrenal gland / …
# [34] = group: cholinesterase, cholinesterase / cholinesterase / cholinesterase / plasma cholinesterase (che)
# [35] = group: systemic, systemic / organ weight / thyroid gland / relative to body weight + systemic / pathology microscopic / kidney / eosinophilic focus + …
# [36] = group: systemic, systemic / pathology microscopic / kidney / eosinophilic focus + systemic / pathology microscopic / kidney / hyaline droplet
# [37] = group: cholinesterase, cholinesterase / cholinesterase / cholinesterase / cholinesterase (che)
# [38] = group: systemic, systemic / hematology / hematocrit (hct) / hematocrit (hct) + systemic / hematology / hemoglobin (hgb) / hemoglobin (hgb) + systemic / in …
# [39] = group: systemic, systemic / hematology / polychromasia / polychromasia
# [40] = systemic / pathology microscopic / nose / inflammation
smiles,measurement,setting,value
COC(=O)c1ccccc1S(=O)(=O)NC(=O)N(C)c1nc(C)nc(OC)n1 [Tribenuron-methyl],LOAEL,"[1]; group: developmental, systemic / in life observation / body weight / fetal weight",80 mg/kg/day
same,LEL,[1]; [18],80 mg/kg/day
same,NEL,[1]; [18],20 mg/kg/day
same,NOAEL,[1]; [18],20 mg/kg/day
same,LOAEL,"[1]; group: maternal, reproductive / reproductive performance / aborted / aborted + systemic / in life observation / food consumption / food consumption",80 mg/kg/day
same,LEL,[1]; [19],80 mg/kg/day
same,NEL,[1]; [19],20 mg/kg/day
same,NOAEL,[1]; [19],20 mg/kg/day
same,LEL,[2],73.3 mg/kg/day
same,LOAEL,[2],> 73.3 mg/kg/day
same,NEL,[2],14.9 mg/kg/day
same,NOAEL,[2],≥ 73.3 mg/kg/day
same,LEL,[3],8.16 mg/kg/day
same,LOAEL,[3],8.16 mg/kg/day
same,NEL,[3],0.79 mg/kg/day
same,NOAEL,[3],0.79 mg/kg/day
same,LOAEL,"[4]; group: developmental, systemic / in life observation / body weight / fetal weight + developmental / developmental malformation / bone / unossified",125 mg/kg/day
same,LEL,[4]; [20],125 mg/kg/day
same,NEL,[4]; [20],20 mg/kg/day
same,NOAEL,[4]; [20],20 mg/kg/day
same,LEL,[4]; [21],125 mg/kg/day
same,LOAEL,[4]; [21],125 mg/kg/day
same,NEL,[4]; [21],20 mg/kg/day
same,NOAEL,[4]; [21],20 mg/kg/day
same,LEL,[5]; [22],1.25 mg/kg/day
same,LOAEL,[5]; [22],12.5 mg/kg/day
same,NEL,[5]; [22],< 1.25 mg/kg/day
same,NOAEL,[5]; systemic / in life observation / body weight / body weight + systemic / pathology microscopic / mammary gland / adenocarcinoma + systemic / …,1.25 mg/kg/day
same,LOAEL,[6]; [23],118 mg/kg/day
same,NOAEL,[6]; [23],7 mg/kg/day
same,LEL,[6]; [24],8 mg/kg/day
same,NEL,[6]; [24],< 8 mg/kg/day
same,LEL,[7]; [25],1.9 mg/kg/day
same,NEL,[7]; [25],< 1.9 mg/kg/day
same,NOAEL,[7]; [26],1.9 mg/kg/day
same,LOAEL,"[7]; group: offspring, systemic / in life observation / body weight / offspring (pup) weight gain + systemic / in life observation / body weight / offspring (pup) …",19 mg/kg/day
same,LEL,[7]; [27],19 mg/kg/day
same,LOAEL,[7]; [27],21 mg/kg/day
same,NEL,[7]; [27],1.9 mg/kg/day
same,NOAEL,"[7]; group: parental, systemic / in life observation / body weight / body weight gain + systemic / in life observation / body weight / body weight",2.2 mg/kg/day
CC(C)N1C(=O)N(c2ccccc2)CSC1=NC(C)(C)C [Buprofezin],LEL,[8]; [26],81.5 mg/kg/day
same,LOAEL,[8]; [26],81.5 mg/kg/day
same,NEL,[8]; [26],7.89 mg/kg/day
same,NOAEL,[8]; [26],7.89 mg/kg/day
same,LEL,[8]; [27],81.5 mg/kg/day
same,LOAEL,[8]; [27],> 81.5 mg/kg/day
same,NEL,[8]; [27],7.89 mg/kg/day
same,NOAEL,[8]; [27],≥ 81.5 mg/kg/day
same,LOAEL,[9]; systemic / pathology microscopic / thyroid gland / hyperplasia + systemic / pathology microscopic / thyroid gland / hypertrophy,8.7 mg/kg/day
same,LEL,[9]; [28],8.7 mg/kg/day
same,NEL,[9]; [28],0.9 mg/kg/day
same,NOAEL,[9]; [28],0.9 mg/kg/day
same,LEL,"[10]; group: developmental, developmental / developmental malformation / bone / incomplete ossification + developmental / developmental malformation / bone / unossified",200 mg/kg/day
same,LOAEL,[10]; [29],800 mg/kg/day
same,NEL,[10]; [29],50 mg/kg/day
same,NOAEL,[10]; [29],200 mg/kg/day
same,LOAEL,[10]; [30],800 mg/kg/day
same,NEL,[10]; [30],50 mg/kg/day
same,NOAEL,[10]; [30],200 mg/kg/day
same,LEL,"[10]; group: maternal, systemic / in life observation / water consumption / water consumption",200 mg/kg/day
same,LEL,[11]; [31],2 mg/kg/day
same,NEL,[11]; [31],< 2 mg/kg/day
same,LOAEL,[11]; [32],20 mg/kg/day
same,NOAEL,[11]; [32],2 mg/kg/day
same,LOAEL,[12]; systemic / organ weight / liver / absolute,17.4 mg/kg/day
same,NEL,[12]; [33],1.82 mg/kg/day
same,NOAEL,[12]; [33],1.82 mg/kg/day
same,LEL,[12]; systemic / organ weight / liver / absolute + systemic / organ weight / liver / relative to body weight,17.4 mg/kg/day
same,LEL,[13]; [34],362 mg/kg/day
same,LOAEL,[13]; [34],> 362 mg/kg/day
same,NEL,[13]; [34],81.8 mg/kg/day
same,NOAEL,[13]; [34],≥ 362 mg/kg/day
same,LOAEL,[13]; [35],68.6 mg/kg/day
same,NOAEL,[13]; [35],13 mg/kg/day
same,LEL,[13]; [36],3.4 mg/kg/day
same,NEL,[13]; [36],< 3.4 mg/kg/day
"Cc1cccc(C)c1N [2,6-Dimethylaniline]",LEL,[14],150 mg/kg/day
same,LOAEL,[14],150 mg/kg/day
same,NEL,[14],50 mg/kg/day
same,NOAEL,[14],50 mg/kg/day
same,LEL,[15]; [37],160 mg/kg/day
same,LOAEL,[15]; [37],> 310 mg/kg/day
same,NEL,[15]; [37],80 mg/kg/day
same,NOAEL,[15]; [37],≥ 310 mg/kg/day
same,LOAEL,[15]; [38],310 mg/kg/day
same,NOAEL,[15]; [38],160 mg/kg/day
same,LEL,[15]; [39],20 mg/kg/day
same,NEL,[15]; [39],< 20 mg/kg/day
same,LOAEL,[16]; systemic / in life observation / body weight / body weight gain,50 mg/kg/day
same,NOAEL,[16]; systemic / in life observation / body weight / body weight gain + systemic / pathology microscopic / adrenal gland / adenoma + systemic / …,15 mg/kg/day
same,LEL,[16]; [40],15 mg/kg/day
same,NEL,[16]; [40],< 15 mg/kg/day
same,LEL,[17],310 mg/kg/day
same,LOAEL,[17],310 mg/kg/day
same,NEL,[17],160 mg/kg/day
same,NOAEL,[17],160 mg/kg/day

# Reference: EPA's ToxRefDB 2
